Reference: patent US8017612B2, “Piperazine compound and use thereof as a HCV polymerase inhibitor” (priority 2006, dated 2011)

How the values were obtained:
[1] = molecular target: T1, HCV polymerase (NS5B) type 1a (Hepatitis C virus genotype 1a, UniProt P26664); experiment: Assay of enzyme (HCV polymerase) inhibitory activity, type 1a enzyme; type: biochemical, HCV type 1a (cloned from the blood of patients); conditions: HCV polymerase inhibitory activity (IC50), 1a, type 1a enzyme 1.5 μg/ml, 25° C., 60 min
T1 construct: made in house; host or cells: Escherichia coli (by the 'similar method' of the 1b enzyme)
Summary of the method: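 His-tagged NS5B, C-terminal 47 residues deleted, type 1a at 1.5 μg/ml, with 5 μg/ml HCV 3′UTR substrate RNA, 50 μM ATP/GTP/CTP, 2 μM UTP plus [3H]UTP, pH 7.5 Tris, 5 mM MgCl2; 60 min at 25° C. TCA-precipitated RNA counted by scintillation; IC50 from radioactivity with vs. without compound.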

[2] = molecular target: T2, HCV polymerase (NS5B) type 1b (Hepatitis C virus genotype 1b, UniProt P26663); experiment: Assay of enzyme (HCV polymerase) inhibitory activity, type 1b enzyme; type: biochemical, HCV BK strain (type 1b); conditions: HCV polymerase inhibitory activity (IC50), 1b, type 1b enzyme 0.5 μg/ml, 25° C., 60 min
T2 construct: a region encoding NS5B (J Virol 1991 March, 65(3), 1105-13, 544 amino acids after deletion of 47 amino acids on the C-terminal); 6xHis (C); made in house; host or cells: Escherichia coli
Summary of the method: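 His-tagged, C-terminally truncated NS5B (BK strain, 1b; 0.5 μg/ml) incubated with compound 60 min at 25 °C on 3′UTR-derived substrate RNA (5 μg/ml), 50 μM ATP/GTP/CTP, 2 μM UTP plus [3H]UTP, pH 7.5. Acid-precipitated RNA counted; IC50 from radioactivity with and without compound.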

CC(C)c1ccc(S(=O)(=O)N2CCN(C3=NCCN3)CC2C(=O)NCc2ccc(C(F)(F)F)cc2)cc1 (stereo not drawn) [Example 103, 4-(4,5-dihydro-1H-imidazol-2-yl)-1-(4-isopropyl-benzenesulfonyl)-piperazine-2-carboxylic acid 4-trifluoromethyl-benzylamide]
IC50 [1]: > 1000 nM | IC50 [2]: > 1000 nM

CN(C)c1ccc(CNC(=O)C2CN(C(=O)CN3CCOCC3)CCN2S(=O)(=O)c2ccc(I)cc2)cc1 (stereo not drawn) [Example 104, 1-(4-iodo-benzenesulfonyl)-4-(2-morpholin-4-yl-acetyl)-piperazine-2-carboxylic acid 4-dimethylamino-benzylamide]
IC50 [1]: > 1000 nM | IC50 [2]: > 1000 nM

CN(C)c1ccc(CNC(=O)C2CN(C(=O)CNCc3ccccc3)CCN2S(=O)(=O)c2ccc(I)cc2)cc1 (stereo not drawn) [Example 105, 4-(2-benzylamino-acetyl)-1-(4-iodo-benzenesulfonyl)-piperazine-2-carboxylic acid 4-dimethylamino-benzylamide]
IC50 [1]: > 1000 nM | IC50 [2]: > 1000 nM

COC(=O)c1ccc(S(=O)(=O)N2CCN(C(C)=O)CC2C(=O)NCc2ccc(C(F)(F)F)cc2)cc1 (stereo not drawn) [Example 106, 4-[4-acetyl-2-(4-trifluoromethyl-benzylcarbamoyl)-piperazine-1-sulfonyl]-benzoic acid methyl ester]
IC50 [1]: > 1000 nM | IC50 [2]: > 1000 nM

CC(=O)N1CCN(S(=O)(=O)c2ccc(C(=O)O)cc2)C(C(=O)NCc2ccc(C(F)(F)F)cc2)C1 (stereo not drawn) [Example 107, 4-[4-acetyl-2-(4-trifluoromethyl-benzylcarbamoyl)-piperazine-1-sulfonyl]-benzoic acid]
IC50 [1]: > 1000 nM | IC50 [2]: > 1000 nM

CC(=O)N1CCN(S(=O)(=O)c2ccc(C(C)C)cc2)C(C(=O)NCc2ccc(-c3cnn(C)c3)cc2)C1 (stereo not drawn) [Example 108, 4-acetyl-1-(4-isopropyl-benzenesulfonyl)-piperazine-2-carboxylic acid 4-(1-methyl-1H-pyrazol-4-yl)-benzylamide]
IC50 [1]: > 1000 nM | IC50 [2]: > 1000 nM

CC(=O)N1CCN(S(=O)(=O)c2ccc(C(C)C)cc2)C(C(=O)NCc2ccc(N3CCCCC3)cc2)C1 (stereo not drawn) [Example 109, 4-acetyl-1-(4-isopropyl-benzenesulfonyl)-piperazine-2-carboxylic acid 4-piperidin-1-yl-benzylamide]
IC50 [1]: > 1000 nM | IC50 [2]: > 1000 nM

CCCN(CCC)CC(=O)N1CCN(S(=O)(=O)c2ccc(I)cc2)C(C(=O)NCc2ccc(N(C)C)cc2)C1 (stereo not drawn) [Example 110, 4-(2-dipropylamino-acetyl)-1-(4-iodo-benzenesulfonyl)-piperazine-2-carboxylic acid 4-dimethylamino-benzylamide]
IC50 [1]: > 1000 nM | IC50 [2]: > 1000 nM

CC(C)c1ccc(S(=O)(=O)N2CCN(C(N)=S)CC2C(=O)NCc2ccc(C(F)(F)F)cc2)cc1 (stereo not drawn) [Example 111, 1-(4-isopropyl-benzenesulfonyl)-4-thiocarbamoyl-piperazine-2-carboxylic acid 4-trifluoromethyl-benzylamide]
IC50 [1]: > 1000 nM | IC50 [2]: > 1000 nM

CC(C)c1ccc(S(=O)(=O)N2CCN(C3=NCCS3)CC2C(=O)NCc2ccc(C(F)(F)F)cc2)cc1 (stereo not drawn) [Example 112, 4-(4,5-dihydro-thiazol-2-yl)-1-(4-isopropyl-benzenesulfonyl)-piperazine-2-carboxylic acid 4-trifluoromethyl-benzylamide]
IC50 [1]: > 1000 nM | IC50 [2]: > 1000 nM

CN(C)c1ccc(CNC(=O)C2CN(C(=O)CCN3CCOCC3)CCN2S(=O)(=O)c2ccc(I)cc2)cc1 (stereo not drawn) [Example 113, 1-(4-iodo-benzenesulfonyl)-4-(3-morpholin-4-yl-propionyl)-piperazine-2-carboxylic acid 4-dimethylamino-benzylamide]
IC50 [1]: > 1000 nM | IC50 [2]: > 1000 nM

CCCN(CCC)CCC(=O)N1CCN(S(=O)(=O)c2ccc(I)cc2)C(C(=O)NCc2ccc(N(C)C)cc2)C1 (stereo not drawn) [Example 114, 4-(3-dipropylamino-propionyl)-1-(4-iodo-benzenesulfonyl)-piperazine-2-carboxylic acid 4-dimethylamino-benzylamide]
IC50 [1]: > 1000 nM | IC50 [2]: > 1000 nM

Cc1csc(N2CCN(S(=O)(=O)c3ccc(C(C)C)cc3)C(C(=O)NCc3ccc(C(F)(F)F)cc3)C2)n1 (stereo not drawn) [Example 115, 1-(4-isopropyl-benzenesulfonyl)-4-(4-methyl-thiazol-2-yl)-piperazine-2-carboxylic acid 4-trifluoromethyl-benzylamide]
IC50 [1]: > 1000 nM | IC50 [2]: > 1000 nM

CC(=O)N1CCN(S(=O)(=O)c2ccc(C(C)C)cc2)C(C(=O)NCc2ccc(-c3ccc(Cl)cc3)cc2)C1 (stereo not drawn) [Example 116, 4-acetyl-1-(4-isopropyl-benzenesulfonyl)-piperazine-2-carboxylic acid (4′-chloro-biphenyl-4-ylmethyl)-amide]
IC50 [1]: > 1000 nM | IC50 [2]: > 1000 nM

CC(=O)N1CCN(S(=O)(=O)c2ccc(C(C)C)cc2)C(C(=O)NCc2ccc(C(C)C)cc2)C1 (stereo not drawn) [Example 117, 4-acetyl-1-(4-isopropyl-benzenesulfonyl)-piperazine-2-carboxylic acid 4-isopropyl-benzylamide]
IC50 [1]: 100 to 1000 nM | IC50 [2]: 100 to 1000 nM

CC(=O)N1CCN(S(=O)(=O)c2ccc(C(C)C)cc2)C(C(=O)NCCc2ccccc2)C1 (stereo not drawn) [Example 118, 4-acetyl-1-(4-isopropyl-benzenesulfonyl)-piperazine-2-carboxylic acid phenethyl-amide]
IC50 [1]: > 1000 nM | IC50 [2]: > 1000 nM

CC(=O)N1CCN(S(=O)(=O)c2ccc(C(C)C)cc2)C(C(=O)NCc2cccc(C(F)(F)F)c2)C1 (stereo not drawn) [Example 119, 4-acetyl-1-(4-isopropyl-benzenesulfonyl)-piperazine-2-carboxylic acid 3-trifluoromethyl-benzylamide]
IC50 [1]: > 1000 nM | IC50 [2]: > 1000 nM

CC(=O)N1CCN(S(=O)(=O)c2ccc(C(C)C)cc2)C(C(=O)NCc2ccccc2C(F)(F)F)C1 (stereo not drawn) [Example 120, 4-acetyl-1-(4-isopropyl-benzenesulfonyl)-piperazine-2-carboxylic acid 2-trifluoromethyl-benzylamide]
IC50 [1]: > 1000 nM | IC50 [2]: > 1000 nM

CC(=O)N1CCN(S(=O)(=O)c2ccc(C(C)C)cc2)C(C(=O)NCc2cccc(OC(F)(F)F)c2)C1 (stereo not drawn) [Example 121, 4-acetyl-1-(4-isopropyl-benzenesulfonyl)-piperazine-2-carboxylic acid 3-trifluoromethoxy-benzylamide]
IC50 [1]: > 1000 nM | IC50 [2]: > 1000 nM

CN(C)c1ccc(CNC(=O)C2CN(C(=O)CC3CCCCC3)CCN2S(=O)(=O)c2ccc(I)cc2)cc1 (stereo not drawn) [Example 122, 4-(2-cyclohexyl-acetyl)-1-(4-iodo-benzenesulfonyl)-piperazine-2-carboxylic acid 4-dimethylamino-benzylamide]
IC50 [1]: > 1000 nM | IC50 [2]: > 1000 nM

CC(C)c1ccc(S(=O)(=O)N2CCN(C(=O)c3ccccc3)CC2C(=O)NCc2ccc(C(F)(F)F)cc2)cc1 (stereo not drawn) [Example 123, 4-benzoyl-1-(4-isopropyl-benzenesulfonyl)-piperazine-2-carboxylic acid 4-trifluoromethyl-benzylamide]
IC50 [1]: > 1000 nM | IC50 [2]: > 1000 nM

CC(C)c1ccc(S(=O)(=O)N2CCN(C(=O)Cc3ccccc3)CC2C(=O)NCc2ccc(C(F)(F)F)cc2)cc1 (stereo not drawn) [Example 124, 1-(4-isopropyl-benzenesulfonyl)-4-phenylacetyl-piperazine-2-carboxylic acid 4-trifluoromethyl-benzylamide]
IC50 [1]: > 1000 nM | IC50 [2]: > 1000 nM

CC(C)c1ccc(S(=O)(=O)N2CCN(C(=O)COc3ccccc3)CC2C(=O)NCc2ccc(C(F)(F)F)cc2)cc1 (stereo not drawn) [Example 125, 1-(4-isopropyl-benzenesulfonyl)-4-(2-phenoxy-acetyl)-piperazine-2-carboxylic acid 4-trifluoromethyl-benzylamide]
IC50 [1]: > 1000 nM | IC50 [2]: > 1000 nM

CC(=O)N1CCN(S(=O)(=O)c2ccc(C(C)C)cc2)C(C(=O)NCc2ccc(Oc3ccccc3)cc2)C1 (stereo not drawn) [Example 126, 4-acetyl-1-(4-isopropyl-benzenesulfonyl)-piperazine-2-carboxylic acid 4-phenoxy-benzylamide]
IC50 [1]: > 1000 nM | IC50 [2]: > 1000 nM

CC(=O)N1CCN(S(=O)(=O)c2ccc(C(C)C)cc2)C(C(=O)NCc2ccc(OC(C)C)cc2)C1 (stereo not drawn) [Example 127, 4-acetyl-1-(4-isopropyl-benzenesulfonyl)-piperazine-2-carboxylic acid 4-isopropoxy-benzylamide]
IC50 [1]: > 1000 nM | IC50 [2]: > 1000 nM

CC(=O)N1CCN(S(=O)(=O)c2ccc(C(C)C)cc2)C(C(=O)NCc2cccc(N(C)C)c2)C1 (stereo not drawn) [Example 128, 4-acetyl-1-(4-isopropyl-benzenesulfonyl)-piperazine-2-carboxylic acid 3-dimethylamino-benzylamide]
IC50 [1]: > 1000 nM | IC50 [2]: > 1000 nM

CC(=O)N1CCN(S(=O)(=O)c2ccc(C(C)C)cc2)C(C(=O)NCc2ccccc2N(C)C)C1 (stereo not drawn) [Example 129, 4-acetyl-1-(4-isopropyl-benzenesulfonyl)-piperazine-2-carboxylic acid 2-dimethylamino-benzylamide]
IC50 [1]: > 1000 nM | IC50 [2]: > 1000 nM
